Assay [1] deals with p21 induction in HCT 116 cells. The assay is described as follows: p21 induction in cells (In-Cell Western, p21/GAPDH ratio). The assay is classed as cell-based. The following applies: Homo sapiens, HCT-116, 24 h, 24 h compound incubation, read-out: P21_EC50. An outline of the steps: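 p21 and GAPDH signals quantified by In-Cell Western after 24 h compound exposure of HCT 116 cells (11 concentrations, 2-fold steps, usual top 10 μM). Percent activation from p21/GAPDH ratio relative to DMSO (low) and internal WRN inhibitor (high) controls; curve fit gave EC50.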

Assay [2] deals with T1, human Werner helicase (WRN, Uniprot Q14191, amino acids 517-1235 with L1074F point mutation; WRN-BV08) (Homo sapiens, UniProt Q14191, L1074F).
T1 construct: Uniprot Q14191, amino acids 517-1235 with L1074F point mutation; 8xHis (C, cleaved yes); TEV cleavage site (ENLYFQG) (C, cleaved yes); made in house; host or cells: Sf9 insect cells (baculovirus, pFastBac)
Briefly: WRN (BV08) ADP-Glo assay. The class given is biochemical. To be noted: WRN-BV08 (aa 517-1235, L1074F); read-out: ADP-Glo_hWRN_IC50. A digest of the protocol: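 ADP formed by untagged WRN helicase fragment (aa 517-1235, L1074F; 0.15 nM final) on 0.1 nM DNA duplex with […], 60 min at 25 °C after 15 min compound preincubation, pH 7.5 Bicine buffer. Luminescent ADP-Glo readout; IC50 from 4-parameter fit of % inhibition.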

The values that follow come from patent publication US20250206738A1, “WRN INHIBITORS” (Nimbus Wadjet, Inc., priority 2023, published 2025).

T1 sequence (Q14191 with tags, fused parts or gaps L1074F): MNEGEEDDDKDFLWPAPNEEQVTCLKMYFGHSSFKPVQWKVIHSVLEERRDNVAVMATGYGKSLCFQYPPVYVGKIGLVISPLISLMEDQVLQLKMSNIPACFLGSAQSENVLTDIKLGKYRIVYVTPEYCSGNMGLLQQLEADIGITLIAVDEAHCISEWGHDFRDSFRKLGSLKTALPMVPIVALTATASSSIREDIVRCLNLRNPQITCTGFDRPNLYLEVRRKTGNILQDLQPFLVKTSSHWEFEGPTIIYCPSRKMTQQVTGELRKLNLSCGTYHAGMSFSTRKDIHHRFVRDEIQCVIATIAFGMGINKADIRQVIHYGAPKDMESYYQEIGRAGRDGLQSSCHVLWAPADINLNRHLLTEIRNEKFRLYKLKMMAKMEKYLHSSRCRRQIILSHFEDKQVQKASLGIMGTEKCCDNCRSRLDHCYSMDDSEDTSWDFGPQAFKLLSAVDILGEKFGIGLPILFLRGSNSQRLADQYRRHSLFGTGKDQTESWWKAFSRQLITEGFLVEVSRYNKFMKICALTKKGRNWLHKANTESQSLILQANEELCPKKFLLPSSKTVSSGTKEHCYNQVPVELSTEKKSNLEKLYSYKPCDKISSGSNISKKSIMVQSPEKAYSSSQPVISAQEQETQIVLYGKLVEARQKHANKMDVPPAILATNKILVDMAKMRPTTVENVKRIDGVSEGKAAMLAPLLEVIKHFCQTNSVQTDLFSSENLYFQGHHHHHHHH

Consider `CCc1c(N2CCN(C(=O)c3ncnc(C)c3O)CC2)c(=O)c2nc3cc(C)sc3nc2n1CC(=O)NC12CC(C(F)(F)F)(C1)C2` [I-3, 2-(7-ethyl-6-(4-(5-hydroxy-6-methylpyrimidine-4-carbonyl)piperazin-1-yl)-2-methyl-5-oxopyrido[2,3-b]thieno[3,2-e]pyrazin-8(5H)-yl)-N-(3-(trifluoromethyl)bicyclo[1.1.1]pentan-1-yl)acetamide], for which the EC50 in assay [1] is greater than 5000 nM. Further, in assay [2], the IC50 was 5 to 50 nM.

In the case of `CCc1c(N2CCN(C(=O)c3ncnc(C)c3O)CC2)c(=O)c2oc(-c3ccnc(OC)c3)nc2n1CC(=O)NC12CC(C(F)(F)F)(C1)C2` [I-17, 2-(5-ethyl-6-(4-(5-hydroxy-6-methylpyrimidine-4-carbonyl)piperazin-1-yl)-2-(2-methoxypyridin-4-yl)-7-oxooxazolo[4,5-b]pyridin-4(7H)-yl)-N-(3-(trifluoromethyl)bicyclo[1.1.1]pentan-1-yl)acetamide], the EC50 in assay [1] was 2000 to 5000 nM. The IC50 in assay [2] was in the range of 5 to 50 nM.

In the case of `CCc1c(N2CCN(C(=O)c3c(O)ccc4ncoc34)CC2)c(=O)n2nc(-c3ccnc(OC)c3)nc2n1CC(=O)NC12CCC(C(F)(F)F)(CC1)CC2` [I-45, 2-(5-ethyl-6-(4-(6-hydroxybenzo[d]oxazole-7-carbonyl)piperazin-1-yl)-2-(2-methoxypyridin-4-yl)-7-oxo-[1,2,4]triazolo[1,5-a]pyrimidin-4(7H)-yl)-N-(4-(trifluoromethyl)bicyclo[2.2.2]octan-1-yl)acetamide], the EC50 in assay [1] fell in the range of 2000 to 5000 nM. Also, the IC50 in assay [2] is 5 to 50 nM.

As to `CCc1c(N2CCN(C(=O)c3c(OC)ncc(C)c3O)CC2)c(=O)n2nc(C3=CCOCC3)nc2n1CC(=O)NC12CC(C(F)(F)F)(C1)C2` [I-236, 2-(2-(3,6-dihydro-2H-pyran-4-yl)-5-ethyl-6-(4-(4-hydroxy-2-methoxy-5-methylnicotinoyl)piperazin-1-yl)-7-oxo-[1,2,4]triazolo[1,5-a]pyrimidin-4(7H)-yl)-N-(3-(trifluoromethyl)bicyclo[1.1.1]pentan-1-yl)acetamide], in assay [1], the EC50 lay in the range of 2000 to 5000 nM. Further, in assay [2], the IC50 was 5 to 50 nM.

In the case of `CCc1c(N2CCN(C(=O)c3ncnc(C)c3O)[C@H]3CC[C@@H]32)c(=O)c2nc(N(C)C)cnc2n1CC(=O)NC12CC(C3CCCC3)(C1)C2` [I-224, N-(3-cyclopentylbicyclo[1.1.1]pentan-1-yl)-2-(2-(dimethylamino)-6-ethyl-7-((1S,6S)-5-(5-hydroxy-6-methylpyrimidine-4-carbonyl)-2,5-diazabicyclo[4.2.0]octan-2-yl)-8-oxopyrido[2,3-b]pyrazin-5(8H)-yl)acetamide], the EC50 in assay [1] is 500 to 2000 nM. Besides, the IC50 in assay [2] was 5 to 50 nM.

Turning to `CCc1c(N2CCN(C(=O)c3c(O)ccc4ncoc34)CC2)c(=O)n2nc(N(C)C)nc2n1CC(=O)NC12CC(C(F)(F)F)(C1)C2` [I-22, 2-(2-(dimethylamino)-5-ethyl-6-(4-(6-hydroxybenzo[d]oxazole-7-carbonyl)piperazin-1-yl)-7-oxo-[1,2,4]triazolo[1,5-a]pyrimidin-4(7H)-yl)-N-(3-(trifluoromethyl)bicyclo[1.1.1]pentan-1-yl)acetamide], the EC50 in assay [1] is 2000 to 5000 nM. Also, the IC50 in assay [2] lay in the range of 5 to 50 nM.

With `CCc1c(N2CCN(C(=O)c3ncnc(C)c3O)CC2)c(=O)n2nc(C3=CCOCC3)nc2n1CC(=O)NC12COC(C(F)(F)F)(C1)C2` [I-26, 2-(2-(3,6-dihydro-2H-pyran-4-yl)-5-ethyl-6-(4-(5-hydroxy-6-methylpyrimidine-4-carbonyl)piperazin-1-yl)-7-oxo-[1,2,4]triazolo[1,5-a]pyrimidin-4(7H)-yl)-N-(1-(trifluoromethyl)-2-oxabicyclo[2.1.1]hexan-4-yl)acetamide], the EC50 in assay [1] is greater than 5000 nM. Further, in assay [2], the IC50 lay within 100 to 500 nM.

As to `CCc1c(N2CCN(C(=O)c3c(OC)ncc(C4CCOC4)c3O)CC2)c(=O)c2nn(-c3ccnc(OC)c3)nc2n1CC(=O)NC12CC(C(C)C)(C1)C2` (single isomer, unassigned) [I-64], the EC50 in assay [1] lay in the range of 500 to 2000 nM. For the same compound, the IC50 in assay [2] fell in the range of 5 to 50 nM.
